{
  "source": "paper PMC9549646",
  "about": "“Diversification of phenolic glucosides by two UDP-glucosyltransferases featuring complementary regioselectivity” (Microbial Cell Factories, 2022)",
  "key": {"[1]": {"molecular_target": "T1, Prolyl endopeptidase (PEP) (Elizabethkingia meningoseptica, UniProt P27028)", "T1 construct": "gene f1pep1", "T1 sequence (P27028 21-705)": "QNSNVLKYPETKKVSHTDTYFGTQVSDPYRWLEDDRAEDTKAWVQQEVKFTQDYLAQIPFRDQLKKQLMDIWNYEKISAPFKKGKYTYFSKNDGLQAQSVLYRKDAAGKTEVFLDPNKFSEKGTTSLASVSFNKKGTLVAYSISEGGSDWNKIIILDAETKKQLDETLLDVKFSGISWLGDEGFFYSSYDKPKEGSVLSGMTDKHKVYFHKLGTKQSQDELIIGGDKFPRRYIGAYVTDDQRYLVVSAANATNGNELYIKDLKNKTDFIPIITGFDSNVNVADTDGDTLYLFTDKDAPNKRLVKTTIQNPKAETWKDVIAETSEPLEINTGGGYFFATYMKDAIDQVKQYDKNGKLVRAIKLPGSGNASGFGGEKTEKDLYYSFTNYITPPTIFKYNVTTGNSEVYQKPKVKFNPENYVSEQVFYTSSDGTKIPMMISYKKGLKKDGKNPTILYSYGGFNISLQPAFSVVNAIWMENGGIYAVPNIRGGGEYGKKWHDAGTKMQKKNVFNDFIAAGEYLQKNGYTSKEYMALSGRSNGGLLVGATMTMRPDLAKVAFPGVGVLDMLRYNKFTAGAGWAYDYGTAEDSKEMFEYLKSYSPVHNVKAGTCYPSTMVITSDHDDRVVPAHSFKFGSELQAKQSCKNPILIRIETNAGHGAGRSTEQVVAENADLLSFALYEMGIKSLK", "test": "chromogenic PEP assay, inhibition rate at […]", "type": "biochemical"}, "UGT85A1": {"molecular_target": "T2, UGT85A1 (Arabidopsis thaliana, UniProt Q9SK82)", "T2 construct": "N-terminal His6-tagged", "T2 sequence (Q9SK82 1-489)": "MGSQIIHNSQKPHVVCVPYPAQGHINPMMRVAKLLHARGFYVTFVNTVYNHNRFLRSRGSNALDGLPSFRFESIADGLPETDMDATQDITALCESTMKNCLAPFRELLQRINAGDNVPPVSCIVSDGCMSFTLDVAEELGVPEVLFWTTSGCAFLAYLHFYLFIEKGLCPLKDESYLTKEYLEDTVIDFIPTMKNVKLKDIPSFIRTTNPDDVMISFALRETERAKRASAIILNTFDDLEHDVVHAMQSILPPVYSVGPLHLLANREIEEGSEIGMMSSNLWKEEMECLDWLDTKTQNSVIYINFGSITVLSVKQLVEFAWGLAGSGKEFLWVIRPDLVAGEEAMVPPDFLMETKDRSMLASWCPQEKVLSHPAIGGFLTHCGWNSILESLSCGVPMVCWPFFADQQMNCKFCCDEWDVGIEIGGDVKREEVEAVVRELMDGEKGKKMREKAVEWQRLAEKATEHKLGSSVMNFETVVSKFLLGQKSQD", "test": "in vitro glucosylation by purified enzyme, HPLC ([…] conversion)", "type": "biochemical"}},
  "data": [
    {"smiles": "OC[C@H]1O[C@@H](OCc2cccc(O)c2)[C@H](O)[C@@H](O)[C@@H]1O", "note": "[12b]", "values": [
      {"measurement": "inhibition at 500 µM", "setting": "[1]", "result": "> 50", "unit": "%"}
    ]},
    {"smiles": "OCc1ccc(O)cc1", "note": "[compound 1, p-hydroxybenzyl alcohol]", "values": [
      {"measurement": "in vitro glucosylation by purified enzyme, HPLC (98.9% conversion)", "setting": "UGT85A1", "result": "UGT85A1 showed higher selectivity than RrUGT17, producing only the alcoholic glucoside 1b"}
    ]},
    {"smiles": "CC(O[C@@H]1O[C@H](CO)[C@@H](O)[C@H](O)[C@H]1O)c1ccc(O)cc1", "note": "(stereo partly shown) [13b]", "values": [
      {"measurement": "inhibition at 500 µM", "setting": "[1]", "result": "> 50", "unit": "%"}
    ]},
    {"smiles": "CC(O[C@@H]1O[C@H](CO)[C@@H](O)[C@H](O)[C@H]1O)c1cccc(O)c1", "note": "(stereo partly shown) [14b]", "values": [
      {"measurement": "inhibition at 500 µM", "setting": "[1]", "result": "> 50", "unit": "%"}
    ]}
  ]
}
